This is an account of results in article PMC7269146, “Jingzhaotoxin-X, a gating modifier of Kv4.2 and Kv4.3 potassium channels purified from the venom of the Chinese tarantula Chilobrachys jingzhao” (The Journal of Venomous Animals and Toxins Including …, 2020).

One assay relates to LVA Cav channels. The experiment in a line: whole-cell voltage-clamp, LVA Cav currents of rat DRG neurons. The class given is cell-based. The note with it: 10 μM, n = 3.
A further assay concerns Nav1.7. The experiment in a line: voltage-clamp, Nav1.7 currents. Format: cell-based, human. Conditions: 1 μM; n = 3. The source says: Rat cDNA genes encoding Kv4.2 (Accession: NM_031730.2) and Kv4.3 (Accession: AB003587.1) were subcloned to vector pcDNA3.1. In addition, human cDNA genes encoding Nav1.7 (Accession: DQ857292.1) and Nav1.5 (Accession: AB158469.2) were subcloned to vectors pcDNA3.1-mod and pcDNA3.1, separately. Then, Kv4.2, Kv4.3, Nav1.5 and Nav1.7 constructs were transiently transfected into the human embryonic kidney 293t (HEK293t) cells using lipofectamine 2000 (Invitrogen, USA) in accordance with manufacturer protocols. Thereafter, HEK293 cells were inoculated within Dulbecco’s modified Eagle’s medium (DMEM) containing 10% fetal bovine serum (FBS) at 5% CO2 and 37°C. The Kv4.3 channel and the Kv4.2 counterpart were then transfected in the absence of β subunit. Subsequently, cells were incubated with a DNA-lipofectamine mixture (one reporter plasmid for green fluorescence protein and channel constructs) for 4-6 h, and were washed with the fresh medium.
An EPC-10 patch-clamp amplifier (HEKA, Germany) was employed to record the potassium currents at the configuration of whole-cell patch-clamp under an ambient temperature of 22-25°C. The resistance was 2.0-3.0 MΩ when the recording pipette contained a full volume of internal solution (supplemented with 140 mM KCl, 10 mM HEPES, 2.5 mM MgCl2, 5 mM ATP and 11 mM EGTA). […]

The subject of a further assay is Kv1.3. The experiment in a line: microelectrode voltage-clamp, Xenopus laevis oocytes, Kv1.3. Format: cell-based. The note with it: 10 μM, 300-ms depolarization to +20 mV from -90 mV, pH 7.5, 19-23°C, n = 3. On the procedure: Briefly, plasmids were linearized, and transcription was carried out according to the standardized protocol. Afterwards, the capped cRNAs that encoded the related ion channels were prepared. To conduct transcription in vitro, firstly, NotL was utilized to linearize plasmids pCI that contained both Kv1.1 (Accession: NM_010595.3) and Kv2.1 (Accession: AF026005.1), whereas SphI was adopted to linearize plasmid PcDNA3 containing Kv1.2 (Accession: NM_012970.3) gene. […] Thereafter, the linearized plasmids were used as the templates to synthesize cRNAs in vitro using the large-scale T7 mMESSAGE mMACHINE transcription kit (Ambion, USA).
A mature female X. laevis was placed on the ice for anesthesia, and then the Xenopus laevis oocytes at stage IV-VI were extracted. Subsequently, those extracted oocytes were treated by collagenase (1 mg/mL) contained within the calcium-depleted ND96 solution (containing 96 mM NaCl, 10 mM HEPES, 1 mM MgCl2, and 2 mM KCl) for defolliculation. […]
Firstly, the effects of JZTX-X on the isoforms of potassium channels (including Kv1.1-1.3, Kv2.1, as well as Kv4.2-4.3) contained within the X. laevis oocytes were investigated through the microelectrode voltage-clamp approach. […] We also determined the effects of JZTX-X on Ito potassium channels in rat DRG neurons; those current amplitudes were inhibited by 54.4±6.8% when 500 nM JZTX-X was applied (Fig. 3K, n = 5).

Entries after “also recorded” stand apart in the source; their conditions may differ. Where a SMILES comes first, the peptide text is derived from it. Bridges are numbered along the chain shown (N, C = ends).

Regarding `CC(C)C[C@@H]1NC(=O)[C@H](CCCCN)NC(=O)[C@H](Cc2ccc(O)cc2)NC(=O)[C@@H]2CSSC[C@@H]3NC(=O)[C@H](Cc4ccc(O)cc4)NC(=O)[C@H](Cc4ccccc4)NC(=O)CNC(=O)[C@H](C)NC(=O)[C@H](CSSC[C@H](NC(=O)[C@@H](N)CC(C)C)C(=O)N[C@@H](CO)C(=O)N[C@@H](CCCNC(=N)N)C(=O)N[C@@H](CCC(=O)O)C(=O)NCC(=O)N[C@@H](CCC(=O)O)C(=O)N[C@@H](Cc4ccccc4)C(=O)N2)NC(=O)[C@H](CSSC[C@@H](C(=O)N[C@@H](Cc2ccc(O)cc2)C(=O)N[C@@H](CCCNC(=N)N)C(=O)N[C@@H](CC(N)=O)C(=O)O)NC(=O)[C@H](Cc2c[nH]cn2)NC(=O)[C@H](CC(C)C)NC(=O)[C@H](C(C)C)NC(=O)[C@H](Cc2ccccc2)NC(=O)[C@H](C)NC(=O)[C@H](CCCCN)NC3=O)NC(=O)[C@H](CCCCN)NC(=O)[C@H](CCCNC(=N)N)NC1=O` [JZTX-X, Jingzhaotoxin-X] (H-LCSREGEFCYKLRKCCAGFYCKAFVLHCYRN-OH; disulfide 2-16, 9-21, 15-28; N-terminus assumed), the “inhibition of LVA Cav current” value in the assay with LVA Cav channels is “less than 5%”. In addition, the “effect on Nav1.7 channel” value in the assay with Nav1.7 was “negligible effect; also recorded: did not affect the currents”. In the assay with Kv1.3, the “inhibition of Kv1.3 current” value is “less than 5%”.
